# Read-outs that look alike come from different tables or passages of the source.
# Key:
# [1] = test system: Enterococcus faecalis 27101; assay: MIC, agar dilution test (Denley multipoint inoculator; Iso-sensitest agar); type: cell-based; details: read-out: MIC values
# Experimental: (§1) The minimum inhibitory concentrations (MIC) were determined by the series dilution method on Iso-Sensitest agar (Oxoid). For each test substance, a series of agar plates which contained concentrations of the active compound which decreased by a dilution factor of two each time was prepared. The agar plates were inoculated with a multipoint inoculator (Denley). Overnight cultures of the pathogens which had first been diluted so that each inoculation point contained about 10^4 colony-forming particles were used for the inoculation. The inoculated agar plates were incubated at 37° C. and the germ growth was read off after about 20 hours. The MIC value (μg/ml) indicates the lowest active compound concentration at which no germ growth was to be detected with the naked eye.
# (§2) The MIC values of some of the compounds according to the invention are shown in comparison with ciprofloxacin in the following table.
# (§3) MIC values (mg/l) determined by the agar dilution
# (§4) test (Denley multipoint inoculator; Iso-sensitest agar)
# [2] = test system: Enterococcus faecalis 9790; assay: as above; type: cell-based; details: read-out: MIC values
# Experimental: as §1, §2, §3, §4
# Escherichia coli Neumann = assay: as above; type: cell-based; details: 37° C., about 20 hours, about 10^4 colony-forming particles
# Experimental: as §1, §2, §3, §4
# Morganella morganii 932 = assay: as above; type: cell-based; details: 37° C., about 20 hours, about 10^4 colony-forming particles
# Experimental: as §1, §2, §3, §4
# Proleus mirabilis 8223 = assay: as above; type: cell-based; details: 37° C., about 20 hours, about 10^4 colony-forming particles
# Experimental: as §1, §2, §3, §4
# Proleus vulgaris 1017 = assay: as above; type: cell-based; details: 37° C., about 20 hours, about 10^4 colony-forming particles
# Experimental: as §1, §2, §3, §4
# [3] = test system: Providencia stuartei 12052; assay: as above; type: cell-based; details: 37° C., about 20 hours, about 10^4 colony-forming particles
# Experimental: as §1, §2, §3, §4
# [4] = test system: Staphylococcus aureus 133; assay: as above; type: cell-based; details: read-out: MIC values
# Experimental: as §1, §2, §3, §4
# [5] = test system: Staphylococcus aureus 1756; assay: as above; type: cell-based; details: read-out: MIC values
# Experimental: as §1, §2, §3, §4
# [6] = test system: Staphylococcus aureus FK 422; assay: as above; type: cell-based; details: read-out: MIC values
# Experimental: as §1, §2, §3, §4
# Solubility in water = type: physicochemical; details: mesylate salt
# [7] = Enterococcus faecalis 27101, 37° C., about 20 hours, about 10^4 colony-forming particles
# [8] = Enterococcus faecalis 9790, 37° C., about 20 hours, about 10^4 colony-forming particles
# [9] = Staphylococcus aureus 133, 37° C., about 20 hours, about 10^4 colony-forming particles
# [10] = Staphylococcus aureus 1756, 37° C., about 20 hours, about 10^4 colony-forming particles
# [11] = FK422, Staphylococcus aureus FK 422, 37° C., about 20 hours, about 10^4 colony-forming particles
Compound,"MIC [1, 7]","MIC [2, 8]",MIC (Escherichia coli Neumann),MIC (Morganella morganii 932),MIC (Proleus mirabilis 8223),MIC (Proleus vulgaris 1017),MIC [3],"MIC [4, 9]","MIC [5, 10]","MIC [6, 11]",solubility in water (Solubility in water),"MIC ([1]; Enterococcus faecalis, 27101, 20 h)","MIC ([2]; Enterococcus faecalis, 9790, 20 h)","MIC ([4]; Staphylococcus aureus, 133, 20 h)","MIC ([5]; Staphylococcus aureus, 1756, 20 h)","MIC ([6]; Staphylococcus aureus, FK422, 20 h)"
"CO[C@@H]1CN(c2cc3c(cc2F)c(=O)c(C(=O)O)cn3C2CC2)C[C@H]1N.Cl (relative stereo) [Example 2, 7-(trans-3-Amino-4-methoxy-1-pyrrolidinyl)-1-cyclopropyl-6-fluoro-4-oxo-3-quinolinecarboxylic acid hydrochloride]",–,0.5 µg/mL,≤ 0.015 µg/mL,0.03 µg/mL,4 µg/mL,0.125 µg/mL,4 µg/mL,0.125 µg/mL,0.125 µg/mL,0.125 µg/mL,–,–,–,–,–,–
"CO[C@H]1CN(c2c(F)cc3c(=O)c(C(=O)O)cn(C4CC4)c3c2Cl)C[C@H]1N.O=C(O)C(F)(F)F (relative stereo) [Example 4, 7-(cis-3-amino-4-methoxy-1-pyrrolidinyl)-8-chloro-1-cyclopropyl-6-fluoro-1,4-dihydro-4-oxo-3-quinolinecarboxylic acid trifluoroacetate]",0.06 µg/mL,0.06 µg/mL,≤ 0.015 µg/mL,≤ 0.015 µg/mL,0.5 µg/mL,≤ 0.015 µg/mL,0.5 µg/mL,≤ 0.015 µg/mL,≤ 0.015 µg/mL,≤ 0.016 µg/mL,–,–,–,–,–,–
"CO[C@H]1CN(c2cc3c(cc2F)c(=O)c(C(=O)O)cn3C2CC2)C[C@H]1N.Cl (relative stereo) [Example 5, 7-(cis-3-Amino-4-methoxy-1-pyrrolidinyl)-1-cyclopropyl-6-fluoro-1,4-dihydro-4-oxo-3-quinolinecarboxylic acid hydrochloride]",0.25 µg/mL,0.25 µg/mL,≤ 0.015 µg/mL,≤ 0.015 µg/mL,2 µg/mL,0.03 µg/mL,4 µg/mL,0.125 µg/mL,0.125 µg/mL,0.125 µg/mL,–,–,–,–,–,–
"O=C(O)c1cn(C2CC2)c2cc(N3CCNCC3)c(F)cc2c1=O [Ciprofloxacin, ciprofloxacin, reference compound]",–,–,≤ 0.015 µg/mL,≤ 0.015 µg/mL,1 µg/mL,≤ 0.015 µg/mL,4 µg/mL,–,–,–,–,0.05 µg/mL,0.25 µg/mL,0.25 µg/mL,0.25 µg/mL,0.25 µg/mL
"CN1CCOC2CN(c3cc4c(cc3F)c(=O)c(C(=O)O)cn4C3CC3)CC21 (centres unmarked) [Example 10, 1-cyclopropyl-6-fluoro-1,4-dihydro-7-(5-methyl-2-oxa-5,8-diazabicyclo[4.3.0]non-8-yl)-4-oxo-3-quinolinecarboxylic acid]",2 µg/mL,2 µg/mL,0.125 µg/mL,0.5 µg/mL,16 µg/mL,1 µg/mL,64 µg/mL,0.125 µg/mL,0.125 µg/mL,0.125 µg/mL,–,–,–,–,–,–
"CN1CCCC2CN(c3cc4c(cc3F)c(=O)c(C(=O)O)cn4C3CC3)CC21 (centres unmarked) [Example 14, 1-cyclopropyl-6-fluoro-1,4-dihydro-7-(2-methyl-2,8-diazabicyclo[4.3.0]non-8-yl)-4-oxo-3-quinolinecarboxylic acid]",0.25 µg/mL,0.5 µg/mL,0.06 µg/mL,0.25 µg/mL,4 µg/mL,0.5 µg/mL,4 µg/mL,0.25 µg/mL,0.25 µg/mL,0.25 µg/mL,–,–,–,–,–,–
"CN1CCC2CN(c3cc4c(cc3F)c(=O)c(C(=O)O)cn4C3CC3)CC21 (centres unmarked) [Example 17, 1-cyclopropyl-6-fluoro-1,4-dihydro-7-(2-methyl-2,7-diazabicyclo[3.3.0]oct-7-yl)-4-oxo-3-quinolinecarboxylic acid]",1 µg/mL,2 µg/mL,0.125 µg/mL,0.5 µg/mL,8 µg/mL,0.5 µg/mL,8 µg/mL,0.5 µg/mL,0.5 µg/mL,0.5 µg/mL,–,–,–,–,–,–

# Further lines, with some results ahead:
"MIC [1, 7]","MIC [2, 8]",MIC (Escherichia coli Neumann),MIC (Morganella morganii 932),MIC (Proleus mirabilis 8223),MIC (Proleus vulgaris 1017),MIC [3],"MIC [4, 9]","MIC [5, 10]","MIC [6, 11]",solubility in water (Solubility in water),Compound,"MIC ([1]; Enterococcus faecalis, 27101, 20 h)","MIC ([2]; Enterococcus faecalis, 9790, 20 h)","MIC ([4]; Staphylococcus aureus, 133, 20 h)","MIC ([5]; Staphylococcus aureus, 1756, 20 h)","MIC ([6]; Staphylococcus aureus, FK422, 20 h)"
0.125 µg/mL,0.125 µg/mL,≤ 0.015 µg/mL,≤ 0.015 µg/mL,1 µg/mL,≤ 0.015 µg/mL,1 µg/mL,0.06 µg/mL,0.06 µg/mL,0.06 µg/mL,–,"CO[C@@H]1CN(c2c(F)cc3c(=O)c(C(=O)O)cn(C4CC4)c3c2F)C[C@H]1N.Cl (relative stereo) [Example 1, 7-(trans-3-amino-4-methoxy-1-pyrrolidinyl)-1-cyclopropyl-6,8-difluoro-4-oxo-3-quinolinecarboxylic acid hydrochloride]",–,–,–,–,–
0.125 µg/mL,0.25 µg/mL,≤ 0.015 µg/mL,0.03 µg/mL,1 µg/mL,≤ 0.015 µg/mL,2 µg/mL,0.03 µg/mL,0.06 µg/mL,0.06 µg/mL,–,"CO[C@H]1CN(c2c(F)cc3c(=O)c(C(=O)O)cn(C4CC4)c3c2F)C[C@H]1N.Cl (relative stereo) [Example 3, 7-(cis-3-Amino-4-methoxy-1-pyrrolidinyl)-1-cyclopropyl-6,8-difluoro-4-oxo-3-quinolinecarboxylic acid hydrochloride]",–,–,–,–,–
0.125 µg/mL,0.125 µg/mL,≤ 0.015 µg/mL,0.06 µg/mL,2 µg/mL,0.06 µg/mL,4 µg/mL,0.03 µg/mL,0.03 µg/mL,0.03 µg/mL,–,"O=C(O)c1cn(C2CC2)c2c(F)c(N3CC4NCCOC4C3)c(F)cc2c1=O (centres unmarked) [Example 8, 1-cyclopropyl-6,8-difluoro-1,4-dihydro-7-(2-oxa-5,8-diazabicyclo[4.3.0]non-8-yl)-4-oxo-3-quinolinecarboxylic acid]",–,–,–,–,–
0.25 µg/mL,0.25 µg/mL,0.25 µg/mL,0.5 µg/mL,8 µg/mL,0.5 µg/mL,32 µg/mL,0.06 µg/mL,0.06 µg/mL,0.06 µg/mL,–,"CN1CCOC2CN(c3c(F)cc4c(=O)c(C(=O)O)cn(C5CC5)c4c3F)CC21 (centres unmarked) [Example 9, 1-cyclopropyl-6,8-difluoro-1,4-dihydro-7-(5-methyl-2-oxa-5,8-diazabicyclo[4.3.0]non-8-yl)-4-oxo-3-quinolinecarboxylic acid]",–,–,–,–,–
0.125 µg/mL,0.25 µg/mL,0.06 µg/mL,0.125 µg/mL,1 µg/mL,0.03 µg/mL,2 µg/mL,0.06 µg/mL,0.06 µg/mL,0.06 µg/mL,–,"CN1CCCC2CN(c3c(F)cc4c(=O)c(C(=O)O)cn(C5CC5)c4c3F)CC21 (centres unmarked) [Example 13, 1-cyclopropyl-6,8-difluoro-1,4-dihydro-7-(2-methyl-2,8-diazabicyclo[4.3.0]non-8-yl)-4-oxo-3-quinolinecarboxylic acid]",–,–,–,–,–
0.03 µg/mL,–,≤ 0.015 µg/mL,0.03 µg/mL,0.5 µg/mL,0.03 µg/mL,1 µg/mL,0.03 µg/mL,0.03 µg/mL,0.03 µg/mL,–,"O=C(O)c1cn(C2CC2)c2c(F)c(N3CC4CCCNC4C3)c(F)cc2c1=O (centres unmarked) [Example 15, 1-cyclopropyl-7-(2,8-diazabicyclo[4.3.0]non-8-yl)-6,8-difluoro-1,4-dihydro-4-oxo-3-quinolinecarboxylic acid]",–,–,–,–,–
0.5 µg/mL,0.5 µg/mL,0.06 µg/mL,0.06 µg/mL,4 µg/mL,0.06 µg/mL,32 µg/mL,0.125 µg/mL,0.125 µg/mL,0.125 µg/mL,–,"O=C(O)c1cn(C2CC2)c2cc(N3CC4CCNC4C3)c(F)cc2c1=O (centres unmarked) [Example 16, 1-cyclopropyl-7-(2,7-diazabicyclo[3.3.0]oct-7-yl)-6-fluoro-1,4-dihydro-4-oxo-3-quinolinecarboxylic acid]",–,–,–,–,–
0.25 µg/mL,0.5 µg/mL,0.03 µg/mL,0.06 µg/mL,1 µg/mL,0.06 µg/mL,4 µg/mL,0.125 µg/mL,0.125 µg/mL,0.125 µg/mL,–,"CN1CCC2CN(c3c(F)cc4c(=O)c(C(=O)O)cn(C5CC5)c4c3F)CC21 (centres unmarked) [Example 18, 1-cyclopropyl-6,8-difluoro-1,4-dihydro-7-(2-methyl-2,7-diazabicyclo[3.3.0]oct-7-yl)-4-oxo-3-quinolinecarboxylic acid]",–,–,–,–,–
–,–,–,–,–,–,–,–,–,–,readily soluble in water,"CS(=O)(=O)O.O=C(O)c1cn(C2CC2)c2c(F)c(N3CC4CCCNC4C3)c(F)cc2c1=O (centres unmarked) [Example 43A, 1-cyclopropyl-7-(2,8-diazabicyclo[4.3.0]non-8-yl)-6,8-difluoro-1,4-dihydro-4-oxo-3-quinolinecarboxylic acid mesylate]",–,–,–,–,–
